# Experimental data reported in patent publication US9119846B2, “Method and composition for enhancing cognition in alzheimer's patients” (NEURIM PHARMACEUTICALS (1991) LTD., priority 2003, dated 2015).
# Assays:
# Assay type in all cases: in vivo, human
# [1] = test system: elderly insomnia patients; assay: Psychomotor performance (total reaction time, mean reaction time); settings: 2 mg per night, 3 weeks
# Method: The effect of a controlled release formulation of melatonin on psychomotor performance (total reaction time, TRT, and Mean reaction time, MRT) in 40 elderly insomnia patients (aged 60.8 (SD 0.8) years) were studied. The subjects were treated for 2 weeks with placebo (baseline) and 3 weeks with 2 mg per night of controlled release melatonin. On the last two days of treatment psychomotor tests were taken by all patients to assess daytime vigilance.
# [2] = test system: elderly volunteers; assay: Memory recall (Rivermead story test), crossover study; settings: for Difference in recalls under melatonin and placebo / Mean number of recalled elements of the story: 2 hours after intake; for Mean number of recalled elements of the story: 2 mg controlled release
# Method: The effect of melatonin (2 mg controlled release formulation) and placebo on memory recall (Rivermead story test) were assessed in 16 elderly volunteers (>55 years; aged 59 (SD 3.2) years). In a randomised, double-blind, crossover study the subjects were given a tablet of placebo in the evening to establish baseline and then a tablet of melatonin or placebo in a random order in the evening with one week with no treatment in between treatments. The Rivermead test was given to the patients at 2 and 12.5 hours after the administration of the tablet. […] Memory efficiency is increased with controlled release 2 mg melatonin for both recalls (immediate and delayed) in the subjects who were smoking or ceased smoking within the last 6 months prior to the study than non-smokers compared to baseline or crossover placebo.
# [3] = test system: mixed age insomnia patients; assay: Leeds Sleep Evaluation Questionnaire sleep quality, responder rate; settings: 1 mg per night, 3 weeks
# Method: The effects of a controlled release formulation of melatonin on subjectively assessed sleep quality were studied in a mixed age insomnia patients population (aged 20-80 years). The subjects were treated for 1 week with placebo to establish baseline characteristics and then for 3 weeks with 1 mg per night of controlled release melatonin or placebo. On the last three days of the baseline and treatment periods patients were asked to assess the quality of their sleep the previous night using the Leeds Sleep Evaluation Questionnaire (Parrott, A. C. and I. Hindmarch (1980). “The Leeds sleep evaluation questionnaire in psychopharmacological investigations—a review.” Psychopharmacology (Berl) 71(2): 173-9) which comprises two 100 mm visual analog scales relating to sleep quality. The distance of the patient mark from the right hand side in mm was measured and the mean answer of the two questions was averaged across the 3 consecutive nights. A responder was defined as a patient showing improvement of 10 mm or more on the averaged value. […] There was no difference in responder rate to placebo between the smokers (46%, n=13) and non-smokers groups (44% n=53, p=0.89, chi-square test).
# [4] = test system: elderly insomnia patients; assay: Subjectively assessed quality of sleep (140 mm visual analog scale), randomized double-blind crossover study; settings: controlled release 2 mg, 4 weeks, higher = better sleep
# Method: The effect of a controlled release formulation of melatonin on subjectively assessed sleep quality in 17 elderly insomnia patients (aged 66.9 (SD 5.4) years) were studied in a randomized, double-blind, crossover study. Basal excretion of the main melatonin metabolite 6-sulfatoxymentonin in urine over the nocturnal period (8 p.m.-8 a.m.) was measured and the subjects were treated for 1 week with placebo to establish baseline characteristics followed by a two-period crossover design (4 weeks on either melatonin controlled release 2 mg or placebo) separated by a washout period (1 week). On the last week of the baseline and treatment periods patients were asked to assess the quality of their sleep the previous night by ticking a 140 mm visual analog scale. The distance (in mm) of the patient mark from the left hand side of the scale was measured and a higher number indicated better sleep. The difference from placebo values in the patient evaluation of restful sleep was calculated for smoking and non-smoking patients. There were no significant differences in the amount of nocturnal 6-sulfatoxymentonin excreted by smokers and non-smokers in the study population (3.5+1.5 vs. 6.3+5 μg 6-sulfatoxymentonin, respectively). […] No difference was found in the response to placebo between the smokers and non-smokers.
compound,measurement,setting,value
COc1ccc2[nH]cc(CCNC(C)=O)c2c1 [melatonin],"improvement in psychomotor skills, MRT",[1]; non-smokers,0.00062 s
same,"improvement in psychomotor skills, TRT",[1]; non-smokers,-5.21 ms
same,"improvement in psychomotor skills, MRT",[1]; smokers,-0.03607 s
same,"improvement in psychomotor skills, TRT",[1]; smokers,-38.95 ms
same,memory tasks in the first hours of administration over the respective placebo values,"[2]; 2 mg controlled release formulation, single administration",improvement of memory tasks
same,Difference in recalls under melatonin and placebo,[2]; Non-smokers (n = 12),−2.41
same,Mean number of recalled elements of the story,[2]; Non-smokers (n = 12),9.8
same,Difference in recalls under melatonin and placebo,[2]; Smokers (n = 4),3.5
same,Mean number of recalled elements of the story,[2]; Smokers (n = 4),14.8
same,rate of responders (improvement of 10 mm or more),"[3]; non-smokers, n=43",40%
same,rate of responders (improvement of 10 mm or more),"[3]; smokers, n=16",62%
same,Mean change (in mm) in perceived quality of sleep with melatonin over placebo,[4]; Non smokers (n = 4),−2.8 mm
same,Mean change (in mm) in perceived quality of sleep with melatonin over placebo,[4]; Smokers (n = 10),15 mm
